From patent US20160369115A1, “POLARIZING PLATE COMPOSITION, POLARIZING PLATE PROTECTIVE FILM, POLARIZER, POLARIZING PLATE, LIQUID CRYSTAL DISPLAY DEVICE, AND COMPOUND USED IN THE LIQUID CRYSTAL DISPLAY DEVICE” (FUJIFILM Corporation, priority 2014, published 2016) come the findings set out here.

The series is described as follows: Solubility of additive in water. As to conditions: amount of the additive dissolving in 100 ml of pure water at 25° C. The format is physicochemical. The procedure: The amount of the additive dissolving in 100 ml of pure water at 25° C. was measured and evaluated according to the following criteria.
Turning to `COC(=O)Oc1[nH]c(=O)n(CCCS(=O)(=O)[O-])c(=O)c1Cc1ccc(C=O)cc1.[Na+]` [Example compound AAC], the Solubility in water result is “A (Equal to or greater than 5 g)”.
`COC(=O)Oc1[nH]c(=O)n(Cc2ccc(B(O)O)cc2)c(=O)c1Cc1ccc(S(=O)(=O)[O-])cc1S(=O)(=O)[O-].[Na+].[Na+]` [Example compound AAL]: the Solubility in water entry was “A (Equal to or greater than 5 g)”.
As for `CCO[Si](CCCNC(=O)OCCn1c(=O)[nH]c(OC(=O)OC)c(Cc2ccc(S(=O)(=O)[O-])cc2S(=O)(=O)[O-])c1=O)(OCC)OCC.[Na+].[Na+]` [Example compound AAP], the entry is “A (Equal to or greater than 5 g)”; as for `COC(=O)Oc1[nH]c(=O)n(Cc2ccc(F)c(F)c2)c(=O)c1Cc1ccc(S(=O)(=O)[O-])cc1S(=O)(=O)[O-].[Na+].[Na+]` [Example compound AAS], “A (Equal to or greater than 5 g)”; as for `COC(=O)Oc1[nH]c(=O)n(Cc2ccc(S(=O)(=O)[O-])cc2)c(=O)c1C=O.[Na+]` [Example compound AAV], “A (Equal to or greater than 5 g)”.
As to `COC(=O)Oc1c(Cc2ccccc2)c(=O)n(CS(=O)(=O)[O-])n1C.[Na+]` [Example compound AH], the Solubility in water entry is reported as “A (Equal to or greater than 5 g)”.
As for `COC(=O)Cc1c(Cc2ccc(S(=O)(=O)[O-])cc2S(=O)(=O)[O-])c(=O)[nH]c2ccccc12.[Na+].[Na+]` [Example compound AJ], the entry is “A (Equal to or greater than 5 g)”; as for `COC(=O)Oc1c(Cc2ccc(S(=O)(=O)[O-])cc2S(=O)(=O)[O-])c(=O)n(-c2ccccc2)c(=O)n1Cc1ccccc1.[Na+].[Na+]` [Example compound B], “A (Equal to or greater than 5 g)”.
The entry for `CCOC(=O)Oc1c(Cc2ccccc2S(=O)(=O)[O-])c(=O)n(-c2ccccc2)c(=O)n1-c1ccccc1.[Na+]` [Example compound D] is “A (Equal to or greater than 5 g)”; for `O=C(Oc1c(Cc2ccccc2S(=O)(=O)[O-])c(=O)n(-c2ccccc2)c(=O)n1-c1ccccc1)OC1c2ccccc2-c2ccccc21.[Na+]` [Example compound H] it is “B (Equal to or greater than 1 g and less than 5 g)”.
The entry for `CC(C)[Si](Oc1c(Cc2ccccc2)c(=O)n(CS(=O)(=O)[O-])c(=O)n1C)(C(C)C)C(C)C.[Na+]` [Example compound L] is “A (Equal to or greater than 5 g)”.
As for `O=C([O-])c1ccc(Cc2c(OCOCc3ccccc3)n(-c3ccccc3)c(=O)n(-c3ccccc3)c2=O)cc1.[Na+]` [Example compound O], the Solubility in water entry is “B (Equal to or greater than 1 g and less than 5 g)”.
The entry for `O=C1NC(=O)N(Cc2ccccc2)C(=O)C1c1ccccc1` (stereo not drawn) [Organic acid 1, reference compound] is “C (Less than 1 g.)”; for `Nc1c(F)c(F)c(C(=O)O)c(F)c1F` [Organic acid 2, reference compound] it is “B (Equal to or greater than 1 g and less than 5 g)”; for `[Cl-].[Cl-].[Zn+2]` [ZnCl2, reference compound] it is “A (Equal to or greater than 5 g)”.
